Reference: US7407988B2, “Carbamic acid compounds comprising a sulfonamide linkage as HDAC inhibitors” (Topotarget UK Limited, priority 2000, dated 2008)
Where two headings read alike, the source gives them in different places.

Legend:
HeLa cells = experiment: Secondary assay: cell proliferation WST-1, HeLa; format: cell-based; settings: Homo sapiens, Table 2, 48 h, read-out: Cell Proliferation Inhibition WST-1 (IC50 unless otherwise specified) HeLa
JURKAT human T-cell line = experiment: Secondary assay: cell proliferation WST-1, Jurkat; format: cell-based; settings: Homo sapiens, Table 2, 48 h, read-out: Cell Proliferation Inhibition WST-1 (IC50 unless otherwise specified) Jurkat
HDAC (HeLa cell extract) = experiment: Primary assay: deacetylase activity, HeLa cell extract as source of HDAC; format: biochemical, human
From the text: Briefly, this assay relies on the release of radioactive acetate from a radioactively labelled histone fragment by the action of HDAC enzyme. Test compounds, which inhibit HDAC, reduce the yield of radioactive acetate. Signal (e.g., scintillation counts) measured in the presence and absence of a test compound provide an indication of that compound's ability to inhibit HDAC activity. Decreased activity indicates increased inhibition by the test compound.
The histone fragment was an N-terminal sequence from histone H4, and it was labelled with radioactively labelled acetyl groups using tritiated acetylcoenzyme A (coA) in conjunction with an enzyme which is the histone acetyltransferase domain of the transcriptional coactivator p300. […] The acetylated peptide was then separated from free acetyl coA by size exclusion chromatography on Sephadex G-15 (Sigma G-15-120), using distilled H2O as the mobile phase.
After purification of the radiolabelled histone fragment, it was incubated with a source of HDAC (e.g., an extract of HeLa cells (a rich source of HDAC), recombinantly produced HDAC1 or HDAC2) and any released acetate was extracted into an organic phase and quantitatively determined using scintillation counting. By including a test compound with the source of HDAC, that compound's ability to inhibit the HDAC was determined.
Two cell volumes of extraction buffer were used, and particulate material was centrifuged out (20800 g, 4° C., 10 min). The supernatant extract having deacetylase activity was aliquotted and frozen for storage.
A source of HDAC (e.g., 2 μL of crude HeLa extract, 5 μL of HDAC1 or HDAC2; in elution buffer, as above) was incubated with 3 μL of radioactively labelled peptide along with appropriate dilutions of candidate compounds (1.5 μL) in a total volume of 150 μL of buffer (20 mM Tris pH 7.4, 10% glycerol). The reaction was carried out at 37° C. for one hour, after which the reaction was stopped by adding 20 μL of 1 M HCl/0.4 M sodium acetate. […] Radioactivity was measured using a Tri-Carb 21 00TR Liquid Scintillation Analyzer (Packard).
Percent activity (% activity) for each test compound was calculated as: % activity={(S^C−B)/(S°−B)}×100 wherein S^C denotes signal measured in the presence of enzyme and the compound being tested, S° denotes signal measured in the presence of enzyme but in the absence of the compound being tested, and B denotes the background signal measured in the absence of both enzyme and compound being tested.

[1] = tested on: K11 HPV E7 transformed human keratinocyte line; experiment: Secondary assay: cell proliferation WST-1, K11; format: cell-based; settings: Homo sapiens, Keratinocyte, Table 2, 48 h, read-out: Cell Proliferation Inhibition WST-1 (IC50 unless otherwise specified) K11
[2] = Table 1, read-out: HDAC Inhibition (IC50 unless otherwise specified) HeLa
[3] = comparative tables, HDAC inhibition, read-out: HeLa IC50

| Compound | IC50 (HeLa cells) | IC50 (JURKAT human T-cell line) | IC50 (HDAC (HeLa cell extract); [2]) | IC50 [1] | melting point | IC50 (HDAC (HeLa cell extract); [3]) |
| --- | --- | --- | --- | --- | --- | --- |
| O=C(/C=C/c1cccc(S(=O)(=O)NCc2ccc3c(c2)OCO3)c1)NO [PX117226, 3-{3-[(Benzo[1,3]dioxol-5-ylmethyl)-sulfamoyl]-phenyl}-N-hydroxy-acrylamide] | 500 nM | 100 nM | 26.3 nM | 2800 nM | 163 °C |  |
| O=C(/C=C/c1ccc(NS(=O)(=O)c2ccc(-c3ccccc3)cc2)cc1)NO [PX117793, (E)-N-Hydroxy-3-[4-(4-biphenylsulfonylamino)-phenyl]-2-propenamide] | 2000 nM | 500 nM | 50 nM | 2700 nM | 190 to 191.5 °C |  |
| CCn1c2ccccc2c2cc(NS(=O)(=O)c3cccc(/C=C/C(=O)NO)c3)ccc21 [PX117798] | 900 nM | 3600 nM | 50 nM | 350 nM | 130 to 133 °C |  |
| O=C(/C=C/c1cccc(S(=O)(=O)NCc2ccccc2)c1)NO [PX106511] | 380 nM | 235 nM | 35 nM | 2500 nM | 179 °C | 35 nM |
| O=C(/C=C/c1cccc(S(=O)(=O)NC(Cc2ccccc2)c2ccccc2)c1)NO (stereo not drawn) [PX117774, 3-[3-(1,2-Diphenyl-ethylsulfamoyl)-phenyl]-N-hydroxy-acrylamide] | 6400 nM | 1000 nM | 396 nM | 7000 nM | 150 °C |  |
| O=C(/C=C/c1cccc(S(=O)(=O)NCc2ccco2)c1)NO [PX117710, 3-{3-[(Furan-2-ylmethyl)-sulfamoyl]-phenyl}-N-hydroxyacrylamide] | 5000 nM | 420 nM | 125 nM | 4000 nM | 165 °C |  |
| O=C(/C=C/c1cccc(S(=O)(=O)Nc2ccc(OC(F)F)cc2)c1)NO [PX117789, 3-[3-(4-Difluoromethoxy-phenylsulfamoyl)-phenyl]-N-hydroxy-acrylamide] | 1100 nM | 300 nM | 30 nM | 800 nM | 91 to 93 °C |  |
| O=C(/C=C/c1cccc(S(=O)(=O)Nc2ccccc2F)c1)NO [PX117787, 3-[3-(2-Fluoro-phenylsulfamoyl)-phenyl]-N-hydroxy-acrylamide] | 2600 nM | 500 nM | 67 nM | 1200 nM | 102 to 103 °C |  |
| O=C(/C=C/c1cccc(NS(=O)(=O)/C=C/c2ccccc2)c1)NO [PX117446, N-Hydroxy-3-{3-[(E)-2-phenylethenesulfonylamino]phenyl}acrylamide] | 6000 nM | 430 nM | 18 nM | 3700 nM | 171 °C | 18 nM |
| O=C(/C=C/c1cccc(S(=O)(=O)Nc2cccc(Br)c2)c1)NO [PX117734, 3-[3-(3-Bromo-phenylsulfamoyl)-phenyl]-N-hydroxy-acrylamide] | 2100 nM | 79 nM | 8 nM | 880 nM | 135.5 to 136.5 °C |  |
| COc1ccc(C(F)(F)F)cc1NS(=O)(=O)c1cccc(/C=C/C(=O)NO)c1 [PX117791, N-Hydroxy-3-[3-(2-methoxy-5-trifluoromethyl-phenylsulfamoyl)-phenyl]-acrylamide] | 3600 nM | 1300 nM | 250 nM | 6700 nM | 207 °C (dec.) |  |
| O=C(/C=C/c1cccc(NS(=O)(=O)c2ccc(-c3ccccc3)cc2)c1)NO [PX117781, 3-[3-(Biphenyl-4-sulfonylamino)-phenyl]-N-hydroxy-acrylamide] | 3400 nM | 800 nM | 58 nM | 2200 nM | 115 °C |  |
| COc1cccc(NS(=O)(=O)c2cccc(/C=C/C(=O)NO)c2)c1 [PX117712, N-Hydroxy-3-[3-(3-methoxy-phenylsulfamoyl)-phenyl]-acrylamide] | 1100 nM | 130 nM | 14 nM | 650 nM | 137 °C |  |
| O=C(/C=C/c1cccc(S(=O)(=O)Nc2cccc(F)c2)c1)NO [PX117788, 3-[3-(3-Fluoro-phenylsulfamoyl)-phenyl]-N-hydroxy-acrylamide] | 2000 nM | 290 nM | 36 nM | 1700 nM | 130 to 133 °C |  |
| COc1ccc(S(=O)(=O)Nc2cccc(/C=C/C(=O)NO)c2)cc1OC [PX117780, 3-[3-(3,4-Dimethoxy-benzenesulfonylamino)-phenyl]-N-hydroxy-acrylamide] | 16800 nM | 4000 nM | 125 nM | 10500 nM | 158 °C |  |
| O=C(/C=C/c1cccc(S(=O)(=O)NC(c2ccccc2)c2ccccc2)c1)NO [PX117773, 3-[3-(Benzhydryl-sulfamoyl)-phenyl]-N-hydroxy-acrylamide] | 3400 nM | 1200 nM | 67 nM | 6200 nM | 180 °C |  |
| O=C(/C=C/C#Cc1ccc(S(=O)(=O)Nc2ccccc2)cc1)NO [PX117453, E-5-(4-Phenylsulfamoylphenyl)pent-2-en-4-ynoic acid hydroxyamide] | 5700 nM | 1100 nM | 45 nM | 4200 nM | 161 to 163 °C | 45 nM |
| COc1ccc(NS(=O)(=O)c2cccc(/C=C/C(=O)NO)c2)cc1OC [PX117782, 3-[3-(3,4-Dimethoxy-phenylsulfamoyl)-phenyl]-N-hydroxy-acrylamide] | 2900 nM | 350 nM | 38 nM | 15600 nM | 191 °C |  |
| O=C(/C=C/c1ccc(S(=O)(=O)Nc2ccc(Br)cc2)cc1)NO [PX117795, N-Hydroxy-3-[4-(4-bromo-phenylsulfamoyl)-phenyl]-acrylamide] | 3400 nM | 510 nM | 13 nM | 1500 nM | 219 to 220.5 °C |  |
| COc1ccccc1NS(=O)(=O)c1cccc(/C=C/C(=O)NO)c1 [PX117227, N-Hydroxy-3-[3-(2-methoxy-phenylsulfamoyl)-phenyl]-acrylamide] | 1200 nM | 360 nM | 50 nM | 4700 nM | 181 °C |  |
| O=C(/C=C/c1cccc(S(=O)(=O)Nc2ccc(-c3ccccc3)cc2)c1)NO [PX117715, 3-[3-(Biphenyl-4-ylsulfamoyl)-pheny]-N-hydroxy-acrylamide] | 1500 nM | 290 nM | 10 nM | 930 nM | 188 °C |  |
